Assay results reported in patent publication US8809529B2, “Imidazo[1,2-α]pyrazine derivatives” (Promega Corporation, priority 2010, dated 2014).
Where two headings read alike, the source gives them in different places.

Tests used:
HEK293 cells [1] = assay: Toxicity of coelenterazines in HEK293 cells (CELLTITER-GLO); details: 24 hrs after compound addition
[2] = Luminescence screen of OgLuc variants in lysed E. coli cells; format: biochemical; details: QC27-9a versus C1+A4E
Description: Resulting libraries were expressed in E. coli and primarily screened with a robotic system for OgLuc variants having increased light output (i.e., increased luminescence, increased brightness, or increased light emission) or a change in relative specificity compared to the corresponding starting OgLuc variant. The robotic primary screen was conducted as follows: individual colonies from the generated library were used to inoculate minimal media in 96-well plates and grown at 37° C. for 17 to 20 hrs (“M1 culture”). The M1 culture was diluted 1:20 with fresh minimal media and grown at 37° C. for 17-20 hrs (“M2 culture”). […] The use of the different induction media was determined based on the luminescence generated between C1+A4E and the novel coelenterazines, i.e., the induction media containing rhamnose and glucose were used with novel coelenterazines that generated less luminescence with C1+A4E compared to the other novel coelenterazines with C1+A4E.
Luminescence measurements for each variant were taken 3 min after reagent addition and relative luminescence unit (RLU) values were normalized to an average of 8 control wells of the corresponding starting OgLuc variant for each plate. […]

HEK293 cells [3] = details: human, 24 h
OgLuc variant 9B8 opt = target: T1, OgLuc variant 9B8 opt (Oplophorus gracilirostris, UniProt Q9GV45, A31E/A60K/A81I/F95Y/I117V/L99Q/M102K/N193R/P142E/Q151K/Q38R/Q45L/V71I/Y165I); assay: Multiplex assay with red click beetle luciferase and 9B8 opt (modified DUAL-GLO); format: biochemical
T1 construct: made in house; host or cells: E. coli (crude lysate)
Description: A. Lysates of E. coli expressing the variant 9B8 opt were prepared as previously described in Example 27 and diluted 1000-fold in DMEM without phenol red+0.1% PRIONEX®. Luminescence from a sample containing 6.3 μg/mL of purified red click beetle luciferase and E. coli lysate expressing the variant 9B8 opt was detected using a modified DUAL-GLO® Luciferase Assay System (Promega Corp.). DUAL-GLO® STOP&GLO® Reagent containing 20 μM coelenterazine-h and DUAL-GLO® STOP&GLO® Reagent containing 20 μM PBI 3939 were used, according to the manufacturer's protocol, to detect the red click beetle luciferase and OgLuc variant 9B8 luciferase from a single sample. Three replicates were performed.
Luminescence was detected on a Turner MODULUS™ luminometer. […] The standard deviation (“+/−”) and coefficient of variance (“CV”) are also shown. A “no coelenterazine” control was performed to illustrate the amount of quenching of the red click beetle signal by the DUAL-GLO® STOP&GLO® Reagent of the DUAL-GLO® Luciferase Assay System in the absence of coelenterazine. The “no coelenterazine” control yielded a 349-fold quench.

OgLuc variant L27V = OgLuc variant L27V (Oplophorus gracilirostris, UniProt Q9GV45, A31E/A60N/A81I/F95D/I117V/K70R/L54V/L99Q/M102K/N193R/P142E/Q151K/Q38R/Q45L/V71I/Y165I); details: approximately 20 pM L27V, pH 6, 3 min at 22° C.
Description: To determine the Km of PBI-3939, the OgLuc variant L27V (described in Example 26) was purified via HALOTAG® fusion using the HALOTAG® Protein Purification System according to the manufacturer's instructions and diluted in DMEM without Phenol Red and 0.1% PRIONEX®. 50 μL assay buffer (100 mM MES pH 6, 35 mM Thiourea, 0.5% TERGITOL® NP-9 (v/v), 1 mM CDTA, 2 mM DTT and 150 mM KCl) with varying amounts of PBI-3939 was added to 50 μL diluted enzyme (approximately 20 pM final enzyme concentration), and luminescence measured at 3 min at 22° C.

HEK293 cells [4] = assay: Live cell luminescence in HEK293 cells; format: cell-based, human; details: HEK293 cells expressing 9B8 opt, 60 μM
Description: A. The use of OgLuc variants and PBI-3939 in live cells was examined. HEK293 cells were plated in 96-well plates at 15,000 cells/well and grown overnight, at 37° C. The following day, the cells were transiently transfected using TRANSIT®-LT1 in 3 replicates with 100 ng of hRL or 9B8 opt in pF4Ag and grown overnight at 37° C. The following day the growth media was removed and replaced with media containing 60 μM VIVIREN™ Live Cell Substrate (Promega Corp.), 60 μM ENDUREN™ Live Cell Substrate (Promega Corp.), or 60 μM PBI-3939 for both hRL and 9B8 opt transfected cells. Non-transfected cells were used as background control. The plate was incubated at 37° C. during the course of one day and periodically measured on a TECAN® GENIOS™ Pro luminometer, i.e., 11 times over the course of 24 hrs.

L27V02 enzyme = target: T2, L27V02 enzyme (Oplophorus gracilirostris, UniProt Q9GV45, A31E/A60N/A81I/F95D/I117V/K70R/L54V/L99Q/M102K/N193R/P142E/Q151K/Q38R/Q45L/V71I/Y165I); assay: Luminescence of compounds with purified L27V02 enzyme; format: biochemical; details: 20 μM compound, 36 pM L27V02, pH 7, 3 min
T2 construct: The N-terminus of the OgLuc variant L27V is methionine, valine and phenylalanine, i.e., MVF; made in house
Description: Compounds PBI-4525, PBI-4540 and PBI-4541 were screened for their ability to detect luminescence. […] The assay reagent was then mixed with 36 pM purified L27V02 enzyme (described in Example 25B), in DMEM without Phenol Red and 0.1% PRIONEX®. As a control, assay buffer with 20 μM PBI-3939 or PBI-4528 was used. Luminescence was measured as previously described 3 min after the assay reagent was added to the enzyme mixture.

OgLuc = target: T3, OgLuc (Oplophorus gracilirostris, UniProt Q9GV45, A31E/A60K/A81I/F95Y/I117V/L99Q/M102K/N193R/P142E/Q151K/Q38R/Q45L/V71I/Y165I); assay: LOPAC library inhibition screen; format: biochemical; details: preliminary LOPAC screen with 9B8 variant, 20 μM substrate
T3 construct: 10 μL of purified 9B8, L27V or firefly luciferase (Luc2) enzyme; made in house
Description: To determine the susceptibility of the OgLuc variants to off-target interactions, the activity of the 9B8 and L27V variants was screened against a LOPAC (library of pharmacologically active compounds) library. A LOPAC 1280 library (Sigma) was prepared by diluting the compounds to 1 mM in DMSO. On the day of the assay, the compounds were diluted to 20 μM in 1×PBS, and 10 μL transferred to a 96-well, white plate. To each well, 10 μL of purified 9B8, L27V or firefly luciferase (Luc2) enzyme diluted 10^−4 in Glo Lysis Buffer (Promega Corp.) was added and incubated at room temperature for 2 min. […] For assaying firefly luciferase, the BRIGHT-GLO™ Assay reagent (Promega Corp.) was used according to the manufacturer's protocol. As a negative control, 8 wells of each plate contained 1×PBS+2% glycerol. As a positive control, 8 wells of each plate contained 2 mM Suramin in 2% DMSO or 2 mM luciferase inhibitor 1 in 2% DMSO (Calbiochem).

HEK293 cells [5] = assay: Luminescence of luciferases in lysed HEK293 cells (codon optimization); format: cell-based, human
Description: Codon optimized versions of IV (“IV opt” (SEQ ID NO: 22) and “IV optB” (SEQ ID NO: 23)) and 9B8 (“9B8 opt” (SEQ ID NO: 24) and “9B8 optB” (SEQ ID NO: 25)) were generated and cloned into pF4Ag by methods known in the art. HEK293 cells were plated in 96-well plates at 15,000 cells/well and grown overnight at 37° C. The following day, the cells were transiently transfected in 6 well replicates using TRANSIT®-LT1 Transfection Reagent (Minis Bio) with 100 ng of plasmid DNA encoding the codon optimized versions in pF4Ag and grown overnight at 37° C. HEK293 cells were also transfected with either pGL4.13 (Luc2/SV40) (Paguio et al., “pGL4 Vectors: A New Generation of Luciferase Reporter Vectors” Promega Notes, 89:7-10 (2005)) or pGL4.73 (hRL/SV40) (Id.) to normalize for differences in transfection efficiency. Ten ng/transfection or 10% of the total DNA transfected was used.
The OgLuc variants had higher luminescence compared to Luc2 and hRL.

T1 sequence (Q9GV45 other isoform, or with tags, fused parts or gaps with the stated changes): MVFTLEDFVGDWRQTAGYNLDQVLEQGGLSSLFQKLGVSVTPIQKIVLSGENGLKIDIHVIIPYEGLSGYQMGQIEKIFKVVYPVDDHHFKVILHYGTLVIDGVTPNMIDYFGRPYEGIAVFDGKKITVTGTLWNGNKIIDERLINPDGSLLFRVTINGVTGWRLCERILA
T2 sequence (Q9GV45 28-196 with tags or gaps with the stated changes limits assumed, one chain of several): as the sequence (Q9GV45 other isoform, or with tags, fused parts or gaps with the stated changes) above, with L29V, K35N, K45R, Y70D counted along it
T3 sequence (Q9GV45 other isoform, or with tags, fused parts or gaps with the stated changes): as the sequence (Q9GV45 other isoform, or with tags, fused parts or gaps with the stated changes) above

## CC(C)c1[nH]c(-c2ccccc2)cn2c(=O)c(Cc3ccc(O)cc3)nc1-2 [PBI-3841]
HEK293 cells [1]
  Viability (normalized to vehicle (DMSO) control) (%): 100%
[2]
  Change in relative specificity (novel coelenterazine/native coelenterazine): 350,000X

## O=c1c(Cc2ccc(O)cc2)nc2c(C3CC3)[nH]c(-c3ccccc3)cn1-2 [PBI-3897, 8-cyclopropyl-2-(4-hydroxybenzyl)-6-phenylimidazo[1,2-a]pyrazin-3(7H)-one]
HEK293 cells [3]
  Viability (normalized to vehicle (DMSO) control) (%): 100%
[2]
  Change in relative specificity (novel coelenterazine/native coelenterazine): 80,000X

## O=c1c(Cc2ccco2)nc2c(Cc3ccccc3)[nH]c(-c3ccccc3)cn1-2 [PBI-3939, 8-benzyl-2-(furan-2-ylmethyl)-6-phenylimidazo[1,2-a]pyrazin-3(7H)-one]
OgLuc variant 9B8 opt; 20 μM substrate in DUAL-GLO STOP&GLO Reagent
  Ogluc (average luminescence generated by 9B8 opt): 2,996,940
OgLuc variant 9B8 opt; Ogluc signal relative to no coelenterazine control
  +/− coel: 207
HEK293 cells [3]
  Viability (normalized to vehicle (DMSO) control) (%): 89%
other
  Stability (pH 8) (T90 in hrs): 4.1 hrs
OgLuc variant L27V
  Km: ~10 µM
HEK293 cells [4]
  cell permeation: can permeate cells in culture
L27V02 enzyme
  RLU: 9,808,880 RLU

## Cc1ccc(C(=O)Nc2ccc(S(=O)(=O)O)c3cc(S(=O)(=O)O)cc(S(=O)(=O)O)c23)cc1NC(=O)c1cccc(NC(=O)Nc2cccc(C(=O)Nc3cc(C(=O)Nc4ccc(S(=O)(=O)O)c5cc(S(=O)(=O)O)cc(S(=O)(=O)O)c45)ccc3C)c2)c1 [Suramin]
OgLuc
  inhibition of OgLuc: inhibitor of OgLuc

B1: Luc2: a firefly luciferase (protein, listed as Photinus pyralis)
chain: MEDAKNIKKGPAPFYPLEDGTAGEQLHKAMKRYALVPGTIAFTDAHIEVDITYAEYFEMSVRLAEAMKRYGLNTNHRIVVCSENSLQFFMPVLGALFIGVAVAPANDIYNERELLNSMGISQPTVVFVSKKGLQKILNVQKKLPIIQKIIIMDSKTDYQGFQSMYTFVTSHLPPGFNEYDFVPESFDRDKTIALIMNSSGSTGLPKGVALPHRTACVRFSHARDPIFGNQIIPDTAILSVVPFHHGFGMFTTLGYLICGFRVVLMYRFEEELFLRSLQDYKIQSALLVPTLFSFFAKSTLIDKYDLSNLHEIASGGAPLSKEVGEAVAKRFHLPGIRQGYGLTETTSAILITPEGDDKPGAVGKVVPFFEAKVVDLDTGKTLGVNQRGELCVRGPMIMSGYVNNPEATNALIDKDGWLHSGDIAYWDEDEHFFIVDRLKSLIKYKGYQVAPAELESILLQHPNIFDAGVAGLPDDDAGELPAAVVVLEHGKTMTEKEIVDYVASQVTTAKKLRGGVVFVDEVPKGLTGKLDARKIREILIKAKKGGKIAV
HEK293 cells [5]
  luminescence relative to hRL: approximately 14 fold
